Bounds are passed on as bounds.

For the first assay, the system named is HBV viral load production from HepAD38 cells. Nature of the assay: Viral production from HepAD38 cells: viral load in supernatant by qPCR of the HBV core sequence. The assay is classed as cell-based. To be noted: 5 days incubation, qPCR of supernatant HBV DNA vs DMSO control, read-out: viral load lowering EC50 (Activity). An outline of the steps: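 Viral load was measured by qPCR of the HBV core region in supernatant, quantified against DNA standards and compared with DMSO wells. Cells (50,000/well, tetracycline withdrawn, 2% FBS) received compound from 10 μM final for 5 days; EC50 from four-parameter nonlinear regression.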
For orientation: Quantitative PCR measures a nucleic acid by following its amplification.
Take `CN1C(C(=O)Nc2ccc(F)c(Cl)c2)CC(C(=O)NCc2ncc(-c3ccccc3)s2)NS1(=O)=O` (single isomer, unassigned) [Compound 931-ISOMER-B, N3-(3-chloro-4-fluoro-phenyl)-2-methyl-1,1-dioxo-N5-[(5-phenylthiazol-2-yl)methyl]-1,2,6-thiadiazinane-3,5-dicarboxamide]: the EC50 (commonly the concentration at which the effect is half-maximal) was below 0.05 µM. `CN1C(C(=O)Nc2ccc(F)c(Cl)c2)CC(C(=O)NCc2cnc(-c3ccc(O)cc3)s2)NS1(=O)=O` (single isomer, unassigned; isomer-a) [Compound 924-ISOMER-A, N3-(3-chloro-4-fluroo-phenyl)-N5-[[2-(4-hydroxyphenyl)thiazol-5-yl]methyl]-2-methyl-1,1-dioxo-1,2,6-thiadiazinane-3,5-dicarboxamide]: the EC50 lay in the range of 0.1 to 10 µM. Consider `CN1C(C(=O)Nc2ccc(F)c(Cl)c2)CC(C(=O)NCc2csc(-c3ccc(OCCN4CCCCC4)cc3)n2)NS1(=O)=O` (single isomer, unassigned) [Compound 957-ISOMER-B, N3-(3-chloro-4-fluoro-phenyl)-2-methyl-1,1-dioxo-N5-[[2-[4-[2-(1-piperidyl)ethoxy]phenyl]thiazol-4-yl]methyl]-1,2,6-thiadiazinane-3,5-dicarboxamide], for which the EC50 was in the range of 0.1 to 10 µM. The same measure, in the same setting: as for `COc1ccccc1-c1ncc(CNC(=O)C2CC(C(=O)Nc3ccc(F)c(Cl)c3)N(C)S(=O)(=O)N2)s1` (single isomer, unassigned) [Compound 987-ISOMER-B, N3-(3-chloro-4-fluoro-phenyl)-N5-[[2-(2-methoxyphenyl)thiazol-5-yl]methyl]-2-methyl-1,1-dioxo-1,2,6-thiadiazinane-3,5-dicarboxamide], the figure is 0.1 to 10 µM; as for `CCN1C(C(=O)Nc2ccc(F)c(Cl)c2)CC(C(=O)NCc2cnc(C)s2)NS1(=O)=O` (single isomer, unassigned) [Compound 888-ISOMER-B, N3-(3-chloro-4-fluoro-phenyl)-2-ethyl-N5-[(2-methylthiazol-5-yl)methyl]-1,1-dioxo-1,2,6-thiadiazinane-3,5-dicarboxamide], below 0.05 µM.

The same assay, now with this note: Hepatitis B virus, HePAD38, 120 h, 5 days incubation, qPCR of supernatant HBV DNA vs DMSO control, read-out: viral load lowering EC50 (Activity).
For the molecule `CN1C(C(=O)Nc2ccc(F)c(Cl)c2)CC(C(=O)NC2CCCc3nc(-c4ccc(OCCN5CCCCC5)cc4)sc32)NS1(=O)=O` (single isomer, unassigned) [Compound 948-ISOMER-A], the concentration for a half-maximal effect (EC50) is below 0.05 µM. Regarding `CN1C(C(=O)Nc2ccc(F)c(Cl)c2)CC(C(=O)N[C@H]2CCN(c3ccnc(Cl)c3)C2)NS1(=O)=O` (stereo partly drawn) [Compound 1055-S], the EC50 was below 0.05 µM. On to `CN1C(C(=O)Nc2ccc(F)c(Cl)c2)CC(C(=O)NC2CCCc3nc(Br)sc32)NS1(=O)=O` (stereo not drawn) [Compound 978], for which the EC50 was below 0.05 µM. The same measure, in the same setting: as for `CN1C(C(=O)Nc2ccc(F)c(Cl)c2)CC(C(=O)NCc2cnc(N)s2)NS1(=O)=O` (stereo not drawn) [Compound 1132], the figure is 0.1 to 10 µM. Take `Cc1cnc(CNC(=O)C2CC(C(=O)Nc3ccc(F)c(Cl)c3)N(C)S(=O)(=O)N2)s1` (single isomer, unassigned) [Compound 687-ISOMER-A, N3-(3-chloro-4-fluoro-phenyl)-2-methyl-N5-[(5-methylthiazol-2-yl)methyl]-1,1-dioxo-1,2,6-thiadiazinane-3,5-dicarboxamide]: the EC50 was 0.1 to 10 µM. On the same count and under the same terms, as for `CN1C(C(=O)Nc2ccc(F)c(Cl)c2)CC(C(=O)NC(c2ccccc2)c2cnc(-c3ccccc3)s2)NS1(=O)=O` (single isomer, unassigned) [1067-ISOMER-A, N3-(3-chloro-4-fluoro-phenyl)-2-methyl-1,1-dioxo-N5-[phenyl-(2-phenylthiazol-5-yl)methyl]-1,2,6-thiadiazinane-3,5-dicarboxamide], the figure is below 0.05 µM; as for `CN1C(C(=O)Nc2ccc(F)c(Cl)c2)CC(C(=O)NCc2nn(-c3ccccc3)c3ccccc23)NS1(=O)=O` (stereo not drawn) [Compound 1072], below 0.05 µM; as for `CN1CCC(Oc2ccc(-c3ncc(CNC(=O)C4CC(C(=O)Nc5ccc(F)c(Cl)c5)N(C)S(=O)(=O)N4)s3)cc2)CC1` (stereo not drawn) [Compound 979], below 0.05 µM. `COC(=O)N1CCC(NC(=O)C2CC(C(=O)Nc3ccc(F)c(Cl)c3)N(C)S(=O)(=O)N2)CC1` (stereo not drawn) [Compound 477]: the EC50 is below 0.05 µM. Turning to `CN1C(C(=O)Nc2ccc(F)c(C#N)c2)CC(C(=O)NCc2nc3ccccc3s2)NS1(=O)=O` (stereo not drawn) [Compound 866], the half-maximal effective concentration (EC50) lay in the range of 0.1 to 10 µM.

Turning to `CN1C(C(=O)Nc2ccc(F)c(Cl)c2)CC(C(=O)NC(c2ccccc2)c2ccccc2)NS1(=O)=O` (stereo not drawn) [Compound 1014], the EC50 is below 0.05 µM. Same read-out and setting: as for `Cc1nc(-c2ccccc2)sc1C(NC(=O)C1CC(C(=O)Nc2ccc(F)c(Cl)c2)N(C)S(=O)(=O)N1)c1ccccc1` (stereo not drawn) [Compound 1099], the figure is 0.05 to 0.1 µM; as for `CN1C(C(=O)Nc2ccc(F)c(Cl)c2)CC(C(=O)NC2CCN(C(=O)OC(C)(C)C)C2)NS1(=O)=O` (stereo not drawn) [Compound 1081], 0.1 to 10 µM. Still for that read-out and setting: as for `CN1C(C(=O)Nc2ccc(F)c(Cl)c2)CC(C(=O)NC2CCN(c3ccnc(Cl)c3)CC2)NS1(=O)=O` (single isomer, unassigned) [1012-ISOMER-A, N3-(3-Chloro-4-fluoro-phenyl)-N5-[1-(2-chloro-4-pyridyl)-4-piperidyl]-2-methyl-1,1-dioxo-1,2,6-thiadiazinane-3,5-dicarboxamide], the figure is below 0.05 µM.

Turning to `Cc1csc(CNC(=O)C2CC(C(=O)Nc3ccc(F)c(Cl)c3)N(C)S(=O)(=O)N2)n1` (stereo not drawn) [Compound 686], the EC50 fell in the range of 0.05 to 0.1 µM. Take `CN1C(C(=O)Nc2ccc(F)c(Cl)c2)CC(C(=O)NC2CCN(c3ccnc(Br)c3)CC2)NS1(=O)=O` (stereo not drawn) [Compound 1036]: the EC50 was below 0.05 µM. Still for that read-out and setting: as for `COc1ccccc1-c1ncc(CNC(=O)C2CC(C(=O)Nc3ccc(F)c(Cl)c3)N(C)S(=O)(=O)N2)s1` (single isomer, unassigned) [Compound 987-ISOMER-A, N3-(3-chloro-4-fluoro-phenyl)-N5-[[2-(2-methoxyphenyl)thiazol-5-yl]methyl]-2-methyl-1,1-dioxo-1,2,6-thiadiazinane-3,5-dicarboxamide], the figure is below 0.05 µM; as for `CN1C(C(=O)Nc2ccc(F)c(Cl)c2)CC(C(=O)NCc2cc(Br)no2)NS1(=O)=O` (stereo not drawn) [Compound 980], 0.1 to 10 µM; as for `CN1C(C(=O)Nc2ccc(F)c(Cl)c2)CC(C(=O)NC(c2ccccc2)c2cnc(-c3ccccc3F)s2)NS1(=O)=O` (stereo not drawn) [Compound 1084], below 0.05 µM.

Take `Cc1cn(-c2ccc(F)cc2F)nc1CNC(=O)C1CC(C(=O)Nc2ccc(F)c(Cl)c2)N(C)S(=O)(=O)N1` (stereo not drawn) [Compound 1144]: the EC50 was below 0.05 µM. Same read-out and setting: as for `CN1C(C(=O)Nc2ccc(F)c(Cl)c2)CC(C(=O)NCc2cnc(-c3ccc(OCCCN4CCCCC4)cc3)s2)NS1(=O)=O` (stereo not drawn) [Compound 942], the figure is 0.05 to 0.1 µM.

With `CN1C(C(=O)Nc2ccc(F)c(Cl)c2)CC(C(=O)NCc2ccncc2)NS1(=O)=O` (stereo not drawn) [Compound 715], the EC50 lay in the range of 0.1 to 10 µM. Still for that read-out and setting: as for `CN1C(C(=O)Nc2ccc(F)c(Cl)c2)CC(C(=O)NCc2cnc(Cl)s2)NS1(=O)=O` (stereo not drawn) [Compound 1199], the figure is below 0.05 µM.

`CN1C(C(=O)Nc2ccc(F)c(Cl)c2)CC(C(=O)NC2CCCc3nc(-c4ccccc4)sc32)NS1(=O)=O` (stereo not drawn) [Compound 917]: the EC50 is below 0.05 µM. The same measure, in the same setting: as for `COc1ccc(CNC(=O)C2CC(C(=O)Nc3ccc(F)c(Cl)c3)N(C)S(=O)(=O)N2)cc1` (stereo not drawn) [Compound 717, N3-(3-chloro-4-fluoro-phenyl)-N5-[(4-methoxyphenyl)methyl]-2-methyl-1,1-dioxo-1,2,6-thiadiazinane-3,5-dicarboxamide], the figure is below 0.05 µM.

(Values after patent US20230075856A1, “CYCLIC SULFAMIDE COMPOUNDS FOR TREATMENT OF HBV” (Assembly Biosciences, Inc., priority 2018, published 2023).)
